Series [1] in a line: Pharmacokinetics in SD rats, intravenous injection or intragastric administration. As to conditions: for Cmax / half-life / MRT / bioavailability: male, Sprague-Dawley, rat, plasma; for Cmax: read-out: drug concentration in blood, Cmax; for half-life: read-out: half-life T1/2 (converted); for MRT: read-out: residence time MRT; for bioavailability: read-out: bioavailability F. It counts as in vivo. The source says: Test Example 3. Study on Oral Pharmacokinetics of the Compounds of the Present Disclosure in SD Rats
SD rats were taken as the test animals. The LC/MS/MS method was used to determine the intravenous injection or intragastric administration of the compounds of the present disclosure in rats, and to determine the drug concentration in plasma at different time points to study the pharmacokinetic characteristics of the compounds of the present disclosure in rats.
Experimental drugs: Olodanrigan, compounds 12, 14, 15 and 16 of the present disclosure;
Animals: 30 healthy adult Sprague Dawley (SD) male rats, purchased from Weitong Lihua Experimental Animal Technology Co. Ltd., production license number: 11400700271077.
An appropriate amount of samples were weighed, and added with DMA, solutol HS 15 (30%, w/v) and normal saline respectively, and then subjected to ultrasound and filtered through PTFE membrane to make a 0.2 mg/mL solution.
An appropriate amount of samples were weighed, added with 0.5% sodium carboxymethyl cellulose (CMC-Na) (containing 0.5% Tween 80), and ultrasonically prepared into a 1 mg/mL suspension. […]
About 0.2 mL of blood was collected from the jugular vein before administration and at 0.083 hours, 0.25 hours, 0.5 hours, 1 hour, 2 hours, 4 hours, 8 hours, 12 hours, and 24 hours after administration, and heparin sodium was used for anticoagulation. The blood samples were collected on ice and centrifuged to separate the plasma (centrifugation conditions: 1500 g, 10 minutes). The collected plasma was stored at −40 to −20° C. before analysis.
10 μL of plasma sample was taken and added with 400 μL of acetonitrile (comprising internal standard working solution which contained verapamil 5 ng/mL and glibenclamide 50 ng/mL). It was vortexed for 10 minutes, centrifuge at 3700 rpm for 10 minutes. 70 μL of the supernatant was taken and added with 70 μL of water, and vortexed for 10 minutes. 2 μL of the mixed solution was taken and injected into LC-MS/MS for sample analysis.

A short description of series [2]: Metabolic stability in rat liver microsomes. It counts as in vitro ADME. Particulars: pH 7.4; rat liver microsomes 0.5 mg/mL, 1 μM compound, NADPH 1 mM, 0-60 min; read-out: half-life/(T1/2, min). As to the method: Test Example 2. Study on the Metabolic Stability of the Compounds of the Present Disclosure in Rat Liver Microsomes
The purpose of this experimental study is to study the metabolic stability of the compounds of the present disclosure in rat liver microsomes.
The test compounds were co-incubated with rat liver microsomes, and the coenzyme NADPH was added to initiate the reaction. At 0, 5, 15, 30, and 60 minutes, 20 μL of incubation solution was taken out and transferred to 200 μL of acetonitrile containing internal standard to stop the reaction. After protein precipitation, it was centrifuged at 3,700 rpm for 10 minutes. The supernatant was taken and analyzed by LC-MS/MS method after being diluted at 1:1 with water. According to the elimination half-life of the test compound in the incubation system, the in vitro clearance rate was calculated. Midazolam was used as the internal reference compound and incubated for 2 copies in parallel.
The ratio of analyte/internal standard peak area (Aanalyte/AIS) was obtained from the instrument, and the remaining percentage (% Control) was calculated as the ratio of Aanalyte/AIS in the non-zero time point sample to the zero time point sample. Ln (% Control) versus incubation time was plotted and subjected to a linear fitting. The clearance constant (k, min-) and clearance half-life (T1/2, min) of the test compounds were calculated by the following equations.
[formula] 4. Experimental Results
Background: Microsomes from liver hold many membrane-bound enzymes, among them those of drug oxidation.

Series [3] deals with T1, human AT2R (Homo sapiens, UniProt P50052).
T1 construct: Tb (terbium) label on the receptor; expressed in transfected cells
T1 sequence (P50052 1-363): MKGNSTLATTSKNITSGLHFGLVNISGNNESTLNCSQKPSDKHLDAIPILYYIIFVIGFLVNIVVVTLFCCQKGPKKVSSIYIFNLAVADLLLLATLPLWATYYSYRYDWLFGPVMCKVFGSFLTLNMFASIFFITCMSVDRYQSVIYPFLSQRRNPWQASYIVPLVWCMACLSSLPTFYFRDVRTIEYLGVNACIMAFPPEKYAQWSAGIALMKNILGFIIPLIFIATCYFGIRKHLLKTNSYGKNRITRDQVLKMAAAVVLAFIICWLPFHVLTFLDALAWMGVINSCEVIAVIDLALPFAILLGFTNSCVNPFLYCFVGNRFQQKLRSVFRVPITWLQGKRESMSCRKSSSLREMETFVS
Put plainly: Antagonistic activity on the binding of human AT2R ligand (Tag-lite HTRF ligand binding, Tb-labeled-AT2R cells). As to conditions: red agonist fluorescent ligand, 1 hour room temperature. The protocol:
Test Example 1 Test of the Antagonistic Activity of the Compound of the Present Disclosure on the Binding of Human AT2R Ligand
Angiotensin II Type 2 Receptor (AT2R) is involved in neuron differentiation and regeneration, cell proliferation and angiogenesis, and maintenance of bone mass. […] The following method uses the AT2 ligand binding test to study the degree of antagonism of the compounds of the present disclosure to AT2R.
2. Reagent Preparation • (1) 10 mM of angiotensin II human: 10 mg of Angiotensin II human (purity 99.09%) was dissolved in 0.947 mL of deionized water, aliquoted and stored at −80° C.; • (2) Preparation of compound stock solution
3. […] 4. Experimental Results
For orientation: TR-FRET usually uses a lanthanide donor and a delayed reading to cut background.

The target in series [4] is T2, AT1R (Homo sapiens, UniProt P30556).
T2 construct: Tb (terbium) label on the receptor; expressed in transfected cells
T2 sequence (P30556 1-359): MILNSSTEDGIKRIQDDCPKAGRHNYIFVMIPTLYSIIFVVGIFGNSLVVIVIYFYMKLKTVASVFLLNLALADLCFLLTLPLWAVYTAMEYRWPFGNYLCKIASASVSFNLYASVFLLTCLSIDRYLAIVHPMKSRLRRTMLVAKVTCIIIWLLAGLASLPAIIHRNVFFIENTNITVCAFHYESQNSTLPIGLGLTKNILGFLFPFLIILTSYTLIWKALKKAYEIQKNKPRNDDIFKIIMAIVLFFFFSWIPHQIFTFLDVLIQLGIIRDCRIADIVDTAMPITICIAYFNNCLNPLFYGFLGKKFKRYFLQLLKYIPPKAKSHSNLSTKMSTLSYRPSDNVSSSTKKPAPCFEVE
Put plainly: Antagonistic activity on AT1R, same method with Tb-labeled-AT1R cells. It counts as binding.

[5] abbreviates: 3 mg/kg, oral (mg/kg), dose not given.
Where [6] appears, read: oral (mg/kg), dose figure not given, versus injection (1 mg/kg).
Setting [7] is: oral (3 mg/kg) versus injection (1 mg/kg).

Molecules are shown by their SMILES. Like-named read-outs stand apart in the source and are kept apart here.

What is called MRT is the average time that molecules of a dose stay in the body. A word on the IC50: it is the midpoint of a concentration-inhibition curve. Higher therefore signals a need for much substance.

For the molecule `N#Cc1ccc2nc(-c3cnc(N4CCCOc5ccc(F)cc54)cc3C(=O)O)oc2c1` [Compound 16, 5-(6-cyanobenzo[d]oxazol-2-yl)-2-(7-fluoro-3,4-dihydrobenzo[b][1,4]oxazepine-5(2H)-yl)isonicotinic acid], the “area under curve AUO0-∞” value in series [1] (injection (1 mg/kg)) was 20800 ± 1740 ng·h/mL; in series [1] (oral (mg/kg), dose not given), 25800 ± 6100 ng·h/mL. The Cmax in series [1] (setting [5]) was 5250 ± 315 ng/mL. Besides, the half-life in series [1] (setting [5]) is 3.7 ± 0.4 h; in series [1] (iv, injection (1 mg/kg)), 3.3 ± 0.2 h. The MRT was 5.5 ± 0.4 h in series [1] (setting [5]) and 3.2 ± 0.3 h in series [1] (iv, injection (1 mg/kg)). In series [1] (setting [6]), the bioavailability is 41.3%. In addition, the half-life at 1 μM in series [2] is 598 min.

In the case of `CN(C(=O)C(c1ccccc1)c1ccccc1)c1cnc(N2CCCOc3ccc(F)cc32)cc1C(=O)O` [Compound 5, 2-(7-fluoro-3,4-dihydrobenzo[b][1,4]oxazepine-5(2H)-yl)-5-(N-methyl-2,2-diphenylacetamido)isonicotinic acid], the concentration for half-maximal inhibition (IC50) in series [3] is 10 nM; in series [4] it was greater than 10 µM.

Take `O=C(O)c1cc(N2CCCOc3ccc(F)cc32)ncc1-c1nc2ccc(F)cc2o1` [Compound 15, 2-(7-fluoro-3,4-dihydrobenzo[b][1,4]oxazepine-5(2H)-yl)-5-(6-fluorobenzo[d]oxazol-2-yl)isonicotinic acid]: the “area under curve AUO0-∞” value in series [1] (injection (1 mg/kg)) was 12100 ± 751 ng·h/mL. In series [1] (iv, injection (1 mg/kg)), the half-life was 4.5 ± 0.4 h and the MRT was 4.5 ± 0.4 h. The bioavailability in series [1] (setting [7]) is 89.9%. In addition, in series [1] (oral (3 mg/kg)), the Cmax was found to be 7050 ± 2640 ng/mL, the half-life is 4.2 ± 0.4 h, the MRT is 5.2 ± 0.4 h and the “area under curve AUO0-∞” value is 32400 ± 6514 ng·h/mL. Further, the half-life at 1 μM in series [2] came out at 160 min.

`COc1ccc2c(c1OCc1ccccc1)C[C@@H](C(=O)O)N(C(=O)C(c1ccccc1)c1ccccc1)C2` [olodanrigan, reference compound]: the “area under curve AUO0-∞” value in series [1] (injection (1 mg/kg)) was 1230 ± 96 ng·h/mL; in series [1] (oral (mg/kg), dose not given), 1483 ± 715 ng·h/mL. In addition, in series [1] (setting [5]), the Cmax was 470 ± 197 ng/mL. For the same molecule, the half-life was 1.5 ± 0.3 h in series [1] (setting [5]) and 1.6 ± 0.3 h in series [1] (iv, injection (1 mg/kg)). Moreover, the MRT was found to be 2.6 ± 1 h in series [1] (setting [5]) and 0.92 ± 0.16 h in series [1] (iv, injection (1 mg/kg)). For the same molecule, the bioavailability in series [1] (setting [6]) stood at 12.1%. Besides, the half-life at 1 μM in series [2] worked out at 96.3 min. For the same molecule, the half-inhibitory concentration (IC50) in series [4] is greater than 10 µM.

Turning to `O=C(O)c1cc(N2CCCOc3ccc(F)cc32)ncc1-c1nc2ccccc2o1` [Compound 12, 5-(benzo[d]oxazol-2-yl)-2-(7-fluoro-3,4-dihydrobenzo[b][1,4]oxazepine-5(2H)-yl)isonicotinic acid], the “area under curve AUO0-∞” value in series [1] (injection (1 mg/kg)) came to 16200 ± 3530 ng·h/mL. Besides, in series [1] (iv, injection (1 mg/kg)), the half-life is 8.1 ± 2.1 h and the MRT was found to be 7.3 ± 1.5 h. In addition, the bioavailability in series [1] (setting [7]) was found to be 83.1%. In series [1] (oral (3 mg/kg)), the Cmax was found to be 8650 ± 6020 ng/mL, the half-life is 4.7 ± 0.3 h, the MRT worked out at 6.1 ± 0.5 h and the “area under curve AUO0-∞” value stood at 40400 ± 14272 ng·h/mL. The half-life at 1 μM in series [2] is 288 min.

On to `CN(C(=O)C(c1ccccc1)c1ccccc1)c1ccc(N2CCCOc3ccc(F)cc32)nc1C(=O)O` [Compound 8, 6-(7-fluoro-3,4-dihydrobenzo[b][1,4]oxazepine-5(2H)-yl)-3-(N-methyl-2,2-diphenylacetamido)picolinic acid], for which the IC50 is 28 nM in series [3] and greater than 10 µM in series [4].

Regarding `O=C(O)c1cc(N2CCCOc3ccc(F)cc32)ncc1-c1nc2cc(F)ccc2o1` [Compound 14, 2-(7-fluoro-3,4-dihydrobenzo[b][1,4]oxazepine-5(2H)-yl)-5-(5-fluorobenzo[d]oxazol-2-yl)isonicotinic acid], the “area under curve AUO0-∞” value in series [1] (injection (1 mg/kg)) was found to be 13800 ± 1370 ng·h/mL. In series [1] (iv, injection (1 mg/kg)), the half-life was 4.7 ± 0.4 h and the MRT is 4.5 ± 0.2 h. Also, in series [1] (setting [7]), the bioavailability came to 105%. In series [1] (oral (3 mg/kg)), the Cmax was found to be 14300 ± 5130 ng/mL, the half-life was 3.6 ± 0.2 h, the MRT stood at 4.7 ± 0.3 h and the “area under curve AUO0-∞” value was found to be 43400 ± 11173 ng·h/mL. Further, in series [2], the half-life at 1 μM was found to be 600 min.

For the molecule `CN(C(=O)C(c1ccccc1)c1ccccc1)c1ccc(N2CCCOc3ccc(F)cc32)cc1C(=O)O` [Compound 4, 5-(7-fluoro-3,4-dihydrobenzo[b][1,4]oxazepine-5(2H)-yl)-2-(N-methyl-2,2-diphenylacetamido)benzoic acid], the IC50 in series [3] was 37 nM; in series [4], greater than 10 µM. For the same molecule, the half-life at 1 μM in series [2] worked out at 185 min.

Take `CN(C(=O)C(c1ccccc1)c1ccccc1)c1cnc(N2CCCOc3cc(F)c(F)cc32)cc1C(=O)O` [Compound 6, 2-(7,8-difluoro-3,4-dihydrobenzo[b][1,4]oxazepine-5(2H)-yl)-5-(N-methyl-2,2-diphenylacetamido)isonicotinic acid]: the half-maximal inhibitory concentration (IC50) in series [3] was 26 nM; in series [4], greater than 10 µM.

The values are drawn from patent publication US12559449B2, “Aromatic ring or heteroaromatic ring derivatives, preparation method therefor and use thereof” (ZHEJIANG HISUN PHARMACEUTICAL CO., LTD., priority 2019, dated 2026).
